Patent US10888092B2, “Ether amines for enhanced sporicidal performance” (Ecolab USA Inc., priority 2016, dated 2021)
Marks after values point to notes of the source that are not given here.

How the values were obtained:
bacterial spores = assay: Fabric swatches (ASTM E2274-09 protocol), simultaneous treatment (Example 5); type: cell-based; settings: TABLE 7, exposure 10 minutes
Protocol: (§1) Various ether amines were tested for their efficiency in eradicating bacterial spores from fabric swatches. The fabric swatches were treated according to ASTM protocol for evaluating laundry sanitizers and disinfectants (ASTM E2274-09). The ASTM protocol provides more realistic conditions for laundering textiles, where the tested textiles are imbedded within a bundle of fabrics to mimic the ability of the composition to penetrate the fabric with less exposure to the wash solution.
Three different ether amine solutions were tested: DA-1214 (octyl/decyloxypropyl-1,3-diaminopropane), DA-1618 (dodecylketradecyloxypropyl-1,3-diaminopropane), and PA-14 (isodecyloxypropyl amine). Part I and Part II were both added together at the start of the experiment for a combined exposure time of 10 minutes. The solutions were made into deionized water as described in Example 1, with the pH adjusted to 9.0 by glycolic acid. However, PA-14 was already neutralized to pH 7 with sodium acetate. The log reduction of spores was measured in the wash solution and on the fabric swatch. The reduction of spores was compared to number of spores in the baseline treatment (water only).

spores [1] = assay: Peracid comparison, ASTM test on fabric swatches (Example 7); type: cell-based; settings: TABLE 9; peracid 200 ppm alone; 10 min at 50° C.
Protocol: as §1
The use of different peracids was tested. Fabric swatches were treated using the ASTM test described in Example 5. Part I was prepared with 100 ppm ether amine (DA-1618). Part II was prepared with 200 ppm of peroxyacetic acid (“POAA”) or peroxyoctanoic acid (“POOA”). When both Part I and Part II were used, the chemicals were added simultaneously. The exposure time was 10 min at 50° C.

spores [2] = assay: Fabric swatches (ASTM E2274), simultaneous treatment, hard water (Example 6); type: cell-based; settings: TABLE 8; 500 ppm synthetic hard water, pH 10.5 prior to peracid addition; ether amine 0 ppm, peracid 200 ppm; 10 minutes
Protocol: as §1
Treatment of fabric swatches was tested in pH-adjusted hard water. The wash solution contained 500 ppm synthetic hard water, and the pH was adjusted to 10.5 with NaOH prior to peracid addition. After the addition of the peracid, pH of the wash solution was between 7-8. DA-1214 was used as the ether amine and peracetic acid as the peracid.
The log reduction of spores was measured in the wash solution and on the fabric swatch. The reduction of spores was compared to number of spores in the baseline treatment (water only). The combined treatment time was 10 minutes.

C. Diff. AATCC 43598 [3] = assay: Fabric swatches, consecutive treatment, spore log reduction (Example 1); type: cell-based, Clostridium difficile; settings: ether amine 0 ppm 10 min, 50° C.
Protocol: Aqueous solutions of ether amine (Part I) and peracid (Part II) were prepared. Ether amine (octyl/decyloxypropyl-1,3-diaminopropane) solution (Part I) was prepared in deionized water and the pH was adjust to 9.0 using glycolic acid. TOMAMINE DA1214 was used as the ether amine. TOMAMINE DA1214 contains about 50-60% by weight of 1,3-Propanediamine, N-[3-(octylocy)propyl] and about 35-40% by weight of 1,3-Propanediamine, N-[3-(decylocy)propyl], and is available from Air Products and Chemicals, Inc., in Allentown, Pa. Peracid (peracetic acid) solution (Part II) was prepared from TSUNAMI° 100 (15 peracetic acid), available from Ecolab Inc., in St Paul, Minn.
(§2) Cotton fabric swatches (5 mm×5 mm) were inoculated with C. Diff. AATCC 43598 at 35° C. for 48 hours. After inoculation, the swatches were treated with a first solution comprising part I of the composition at 50° C. for a first exposure time; removed from the first solution with sterile forceps and immediately transferred into a second solution comprising part II of the composition for a second exposure time. In comparative treatments, the solutions included only water. After treatment, the number of surviving spores was evaluated, and the log reduction of spores was compared to the comparative treatment (water only).
In Example 1, the first exposure time was 10 minutes (Part I) and the second exposure time was 5 minutes (Part II).

C. Diff. AATCC 43598 [4] = assay: Glass surface, consecutive treatment (Example 2); type: cell-based, Clostridium difficile; settings: TABLE 4A, glass squares, ether amine 0 ppm 10 min
Protocol: as §2
(§3) The treatment described above for Example 1 was applied to glass squares (5 mm×5 mm) in a first part of the experiment, where the first exposure time was 10 minutes (part I) and the second exposure time was 5 minutes (part II). In a second part of the experiment, the ether amine and peracid were mixed together prior to treatment, and the exposure time was 15 minutes. Results of the first part of the experiment are shown in TABLE 4A, and of the second part of the experiment in TABLE 4B.

C. Diff. AATCC 43598 [5] = assay: Fabric swatches, consecutive vs. simultaneous treatment (Example 4); type: cell-based, Clostridium difficile; settings: TABLE 6, ether amine 0 ppm 10 min, peracid 300 ppm 5 minutes
Protocol: as §2
Consecutive and simultaneous treatment with low concentration (100 ppm) of ether amine and peracetic acid was tested on fabric squares. The fabric squares were treated as in Example 1 with treatment times of 10 min (part I) and 5 minutes (part II), except with the simultaneous treatment, where ether amine and peracid were mixed prior to treatment and the exposure time was 5 minutes.

C. Diff. AATCC 43598 [6] = assay: Glass surface, room temperature (Example 3); type: cell-based, Clostridium difficile; settings: TABLE 5, room temperature (approximately 23° C.), ether amine 0 ppm 10 min, peracid 1000 ppm 5 min
Protocol: as §2, §3
The treatment described in Example 2 was repeated at room temperature (“RT,” approximately 23° C.). Part I was prepared with ether amine DA-1214 and Part II with peroxyacetic acid. The exposure times were 10 min for Part I and 5 min for Part II.

[7] = ether amine 100 ppm, peracid 0 ppm
[8] = ether amine 0 ppm, peracid 200 ppm
[9] = TABLE 3A, then peracid 300 ppm 5 min
[10] = TABLE 3A, then peracid 500 ppm 5 min
[11] = TABLE 3C, then peracid 300 ppm 5 min

Compound: CC(C)CCCCCCCOCCCN [PA-14, isodecyloxypropyl amine]
- Fabric Swatch Log Reduction (bacterial spores; [7]): 0.07
- Wash Solution Log Reduction (bacterial spores; [7]): 0.17

Compound: CCCCCCCC(=O)OO [POOA, peroxyoctanoic acid]
- Carrier log reduction (spores [1]): 5.35
- Wash Solution Log Reduction (spores [1]): 6.00*

Compound: CC(=O)OO [peracid, peracetic acid]
- Fabric Swatch Log Reduction (bacterial spores; [8]): 2.65
- Wash Solution Log Reduction (bacterial spores; [8]): 5.33
- Fabric Swatch Log Reduction (spores [2]): 3.01
- Wash Solution Log Reduction (spores [2]): 5.30
- Average Log (C. Diff. AATCC 43598 [3]; [9]): 5.36
- Average Survivors (C. Diff. AATCC 43598 [3]; [9]): 2.3 × 10^5
- Log Reduction (C. Diff. AATCC 43598 [3]; [9]): 1.02
- Average Log (C. Diff. AATCC 43598 [3]; [10]): 3.23
- Average Survivors (C. Diff. AATCC 43598 [3]; [10]): 1.7 × 10^3
- Log Reduction (C. Diff. AATCC 43598 [3]; [10]): 3.15
- Average Log (C. Diff. AATCC 43598 [3]; [11]): 5.04
- Average Survivors (C. Diff. AATCC 43598 [3]; [11]): 1.1 × 10^5
- Log Reduction (C. Diff. AATCC 43598 [3]; [11]): 0.69
- Carrier log reduction (spores [1]): 1.78
- Wash Solution Log Reduction (spores [1]): 4.40
- Average Log (C. Diff. AATCC 43598 [4]; then peracid 300 ppm 5 min): 5.30
- Average Survivors (C. Diff. AATCC 43598 [4]; then peracid 300 ppm 5 min): 2.0 × 10^5
- Log Reduction (C. Diff. AATCC 43598 [4]; then peracid 300 ppm 5 min): 1.36
- Average Log (C. Diff. AATCC 43598 [4]; then peracid 500 ppm 5 min): 3.38
- Average Survivors (C. Diff. AATCC 43598 [4]; then peracid 500 ppm 5 min): 2.4 × 10^3
- Log Reduction (C. Diff. AATCC 43598 [4]; then peracid 500 ppm 5 min): 3.28
- Log Reduction (C. Diff. AATCC 43598 [5]): 0.85
- Average Log (C. Diff. AATCC 43598 [6]): >5.48
- Average Survivors (C. Diff. AATCC 43598 [6]): >300 × 10^3
- Log Reduction (C. Diff. AATCC 43598 [6]): <1.32
